Test results published in US6358885B1, “Substituted phenylheterocyclic herbicides” (Mississippi State University, priority 1992, dated 2002).

Columns and labels:
morningglory = test: Test C preemergence/postemergence greenhouse plant response rating 0 to 100; format: in vivo, Ipomoea hederacea; conditions: POSTEMERGENCE; for Plant response rating, Morningglory: 0 to 100 scale
Procedure, shortened: (§1)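 Compounds in non-phytotoxic solvent applied preemergence to sandy loam one day after planting, postemergence at the 1–4 leaf stage, or to ~2.5 cm floodwater over silt loam.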

barley = test: Test B preemergence/postemergence greenhouse plant response rating 0 to 10; format: in vivo, Hordeum vulgare; conditions: 0 to 10 scale
Procedure, shortened: (§2)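 Test chemicals were sprayed onto freshly planted seed and, concurrently, onto young plants between the one and four leaf stage. After a twelve- to sixteen-day greenhouse period, each species was visually compared with untreated controls.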

rice [1] = test: as above; format: in vivo, Oryza sativa; conditions: 0 to 10 scale
Procedure, shortened: as §2

crabgrass = test: as above; format: in vivo, Digitaria spp.; conditions: 0 to 10 scale
Procedure, shortened: as §2

umbrella sedge = test: Test C flood test plant response rating 0 to 100; format: in vivo, Cyperus difformis; conditions: for Plant response rating (0 to 100), Umbrella sedge: under POSTEMERGENCE head (flood test species); for Plant response rating Umbrella sedge: flood test species listed under POSTEMERGENCE, 0 to 100 scale
Procedure, shortened: as §1

blackgrass = test: Test B preemergence/postemergence greenhouse plant response rating 0 to 10; format: in vivo, Alopecurus myosuroides; conditions: 0 to 10 scale
Procedure, shortened: as §2

barnyardgrass = test: Test C flood test plant response rating 0 to 100; format: in vivo, Echinochloa crus-galli; conditions: for Plant response rating (0 to 100), Barnyardgrass: under POSTEMERGENCE head (flood test species); for Plant response rating, Barnyardgrass: flood test species listed under POSTEMERGENCE, 0 to 100 scale
Procedure, shortened: as §1

soybean = test: Test B preemergence/postemergence greenhouse plant response rating 0 to 10; format: in vivo, Glycine max; conditions: 0 to 10 scale
Procedure, shortened: as §2

purple nutsedge = test: as above; format: in vivo, Cyperus rotundus; conditions: 0 to 10 scale
Procedure, shortened: as §2

cocklebur = test: as above; format: in vivo, Xanthium pensylvanicum; conditions: 0 to 10 scale
Procedure, shortened: as §2

sorghum = test: Test C preemergence/postemergence greenhouse plant response rating 0 to 100; format: in vivo, Sorghum bicolor; conditions: POSTEMERGENCE; for Plant response rating, Sorghum: 0 to 100 scale
Procedure, shortened: as §1

sugar beet = test: Test B preemergence/postemergence greenhouse plant response rating 0 to 10; format: in vivo, Beta vulgaris; conditions: 0 to 10 scale
Procedure, shortened: as §2

lambsquarters = test: as above; format: in vivo, Chenopodium album; conditions: 0 to 10 scale
Procedure, shortened: as §2

corn = test: Test C preemergence/postemergence greenhouse plant response rating 0 to 100; format: in vivo, Zea mays; conditions: POSTEMERGENCE; for Plant response rating, Corn: 0 to 100 scale
Procedure, shortened: as §1

bedstraw = test: Test B preemergence/postemergence greenhouse plant response rating 0 to 10; format: in vivo, Galium aparine; conditions: 0 to 10 scale
Procedure, shortened: as §2

rape = test: as above; format: in vivo, Brassica napus; conditions: 0 to 10 scale
Procedure, shortened: as §2

pigweed = test: Test C preemergence/postemergence greenhouse plant response rating 0 to 100; format: in vivo, Amaranthusretroflexus; conditions: POSTEMERGENCE; for Plant response rating Pigweed: 0 to 100 scale
Procedure, shortened: as §1

rice [2] = test: Test C flood test plant response rating 0 to 100; format: in vivo, Oryza sativa; conditions: for Plant response rating (0 to 100), Rice Japonica: under POSTEMERGENCE head (flood test species); for Plant response rating Rice Japonica: flood test species listed under POSTEMERGENCE, 0 to 100 scale
Procedure, shortened: as §1

In the case of C=CCN1C(=O)COc2cc(F)c(-c3nn4c(c3Br)CCCC4)cc21 [Compound 41], the “Plant response rating, Morningglory” value (morningglory; 62 g/ha) is reported as 100, the “Plant response rating, Morningglory” value (morningglory; 125 g/ha) is reported as 100 and the “Plant response rating (0 to 100), Morningglory” value (morningglory; Rate 16 g/ha) is reported as 70. For the same compound, the “Plant response rating (0 to 100), Morningglory” value (morningglory; Rate 31 g/ha) was 100, the “Plant response rating, Barley” value (barley; POSTEMERGENCE, Rate 50 g/ha) was 5 and the “Plant response rating, Barley” value (barley; POSTEMERGENCE, Rate 200 g/ha) was 5. The “Plant response rating, Barley” value (barley; PREEMERGENCE, Rate 50 g/ha) was 1, the “Plant response rating, Barley” value (barley; Rate 200 g/ha, PREEMERGENCE) was 1 and the “Plant response rating, Rice” value (rice [1]; POSTEMERGENCE, Rate 50 g/ha) was 6. The “Plant response rating, Rice” value (rice [1]; PREEMERGENCE, Rate 50 g/ha) was 0, the “Plant response rating, Rice” value (rice [1]; Rate 200 g/ha, POSTEMERGENCE) was 7 and the “Plant response rating, Rice” value (rice [1]; Rate 200 g/ha, PREEMERGENCE) was 0. For the same compound, the “Plant response rating, Crabgrass” value (crabgrass; POSTEMERGENCE, Rate 50 g/ha) was 3, the “Plant response rating, Crabgrass” value (crabgrass; POSTEMERGENCE, Rate 200 g/ha) was 5 and the “Plant response rating, Crabgrass” value (crabgrass; PREEMERGENCE, Rate 50 g/ha) was 0. For the same compound, the “Plant response rating, Crabgrass” value (crabgrass; Rate 200 g/ha, PREEMERGENCE) was 6, the “Plant response rating (0 to 100), Umbrella sedge” value (umbrella sedge; Rate 16 g/ha) was 60 and the “Plant response rating (0 to 100), Umbrella sedge” value (umbrella sedge; Rate 31 g/ha) was 60. For the same compound, the “Plant response rating Umbrella sedge” value (umbrella sedge; 62 g/ha) was 80, the “Plant response rating Umbrella sedge” value (umbrella sedge; 125 g/ha) was 90 and the “Plant response rating, Blackgrass” value (blackgrass; POSTEMERGENCE, Rate 50 g/ha) was 2. The “Plant response rating, Blackgrass” value (blackgrass; POSTEMERGENCE, Rate 200 g/ha) was 5, the “Plant response rating, Blackgrass” value (blackgrass; PREEMERGENCE, Rate 50 g/ha) was 6 and the “Plant response rating, Blackgrass” value (blackgrass; Rate 200 g/ha, PREEMERGENCE) was 7. The “Plant response rating (0 to 100), Barnyardgrass” value (barnyardgrass; Rate 16 g/ha) was 90, the “Plant response rating (0 to 100), Barnyardgrass” value (barnyardgrass; Rate 31 g/ha) was 100 and the “Plant response rating, Barnyardgrass” value (barnyardgrass; 62 g/ha) was 100. The “Plant response rating, Barnyardgrass” value (barnyardgrass; 125 g/ha) was 100, the “Plant response rating, Soybean” value (soybean; POSTEMERGENCE, Rate 50 g/ha) was 9 and the “Plant response rating, Soybean” value (soybean; PREEMERGENCE, Rate 50 g/ha) was 0. The “Plant response rating, Soybean” value (soybean; Rate 200 g/ha, POSTEMERGENCE) was 10, the “Plant response rating, Soybean” value (soybean; Rate 200 g/ha, PREEMERGENCE) was 0 and the “Plant response rating, Nutsedge” value (purple nutsedge; POSTEMERGENCE, Rate 50 g/ha) was 4. For the same compound, the “Plant response rating, Nutsedge” value (purple nutsedge; PREEMERGENCE, Rate 50 g/ha) was 0, the “Plant response rating, Nutsedge” value (purple nutsedge; Rate 200 g/ha, POSTEMERGENCE) was 4 and the “Plant response rating, Nutsedge” value (purple nutsedge; Rate 200 g/ha, PREEMERGENCE) was 0. For the same compound, the “Plant response rating, Cocklebur” value (cocklebur; POSTEMERGENCE, Rate 50 g/ha) was 10, the “Plant response rating, Cocklebur” value (cocklebur; POSTEMERGENCE, Rate 200 g/ha) was 10 and the “Plant response rating, Cocklebur” value (cocklebur; PREEMERGENCE, Rate 50 g/ha) was 2. The “Plant response rating, Cocklebur” value (cocklebur; Rate 200 g/ha, PREEMERGENCE) was 5, the “Plant response rating, Sorghum” value (sorghum; 62 g/ha) was 40 and the “Plant response rating, Sorghum” value (sorghum; 125 g/ha) was 50. For the same compound, the “Plant response rating (0 to 100), Sorghum” value (sorghum; Rate 16 g/ha) was 20, the “Plant response rating (0 to 100), Sorghum” value (sorghum; Rate 31 g/ha) was 30 and the “Plant response rating, Sugar beet” value (sugar beet; POSTEMERGENCE, Rate 50 g/ha) was 10. For the same compound, the “Plant response rating, Sugar beet” value (sugar beet; PREEMERGENCE, Rate 50 g/ha) was 10, the “Plant response rating, Sugar beet” value (sugar beet; Rate 200 g/ha, POSTEMERGENCE) was 10 and the “Plant response rating, Sugar beet” value (sugar beet; Rate 200 g/ha, PREEMERGENCE) was 10. The “Plant response rating, Lambsquarter” value (lambsquarters; POSTEMERGENCE, Rate 50 g/ha) was 10, the “Plant response rating, Lambsquarter” value (lambsquarters; PREEMERGENCE, Rate 50 g/ha) was 10 and the “Plant response rating, Lambsquarter” value (lambsquarters; Rate 200 g/ha, POSTEMERGENCE) was 10. For the same compound, the “Plant response rating, Lambsquarter” value (lambsquarters; Rate 200 g/ha, PREEMERGENCE) was 10, the “Plant response rating, Corn” value (corn; 62 g/ha) was 40 and the “Plant response rating, Corn” value (corn; 125 g/ha) was 50. The “Plant response rating (0 to 100), Corn” value (corn; Rate 16 g/ha) was 40, the “Plant response rating (0 to 100), Corn” value (corn; Rate 31 g/ha) was 40 and the “Plant response rating, Bedstraw” value (bedstraw; POSTEMERGENCE, Rate 50 g/ha) was 10. The “Plant response rating, Bedstraw” value (bedstraw; POSTEMERGENCE, Rate 200 g/ha) was 10, the “Plant response rating, Bedstraw” value (bedstraw; PREEMERGENCE, Rate 50 g/ha) was 2 and the “Plant response rating, Bedstraw” value (bedstraw; Rate 200 g/ha, PREEMERGENCE) was 10. For the same compound, the “Plant response rating, Rape” value (rape; POSTEMERGENCE, Rate 50 g/ha) was 10, the “Plant response rating, Rape” value (rape; PREEMERGENCE, Rate 50 g/ha) was 10 and the “Plant response rating, Rape” value (rape; Rate 200 g/ha, POSTEMERGENCE) was 10. The “Plant response rating, Rape” value (rape; Rate 200 g/ha, PREEMERGENCE) was 10, the “Plant response rating Pigweed” value (pigweed; 62 g/ha) was 100 and the “Plant response rating Pigweed” value (pigweed; 125 g/ha) was 100. For the same compound, the “Plant response rating (0 to 100), Pigweed” value (pigweed; Rate 16 g/ha) was 90, the “Plant response rating (0 to 100), Pigweed” value (pigweed; Rate 31 g/ha) was 100 and the “Plant response rating (0 to 100), Rice Japonica” value (rice [2]; Rate 16 g/ha) was 45. For the same compound, the “Plant response rating (0 to 100), Rice Japonica” value (rice [2]; Rate 31 g/ha) was 65, the “Plant response rating Rice Japonica” value (rice [2]; 62 g/ha) was 80 and the “Plant response rating Rice Japonica” value (rice [2]; 125 g/ha) was 85.
